The nature of data set [1]: Cell viability assay (MTT) on normal cell line. The note with it: human, MCF-10A normal mammary gland epithelial cells.
Experimental: The viability of the investigated compounds was assessed using the normal human mammary gland epithelial cell line MCF-10A. After four days of incubation on MCF-10A cells with 50 µM of each examined compound, cell viability was assessed using the MTT test[46]^,[47].
The viability of 7a–o was determined using the normal human mammary gland epithelial (MCF-10A) cell line^46,[47].
MTT assay was performed to investigate the effect of the synthesized compounds on mammary epithelial cells (MCF-10A). The cells were propagated in medium consisting of Ham's F-12 medium/ Dulbecco's modified Eagle's medium (DMEM) (1:1) supplemented with 10% foetal calf serum (GIBCO, UK), 2 mM glutamine, insulin (10 μg/mL), hydrocortisone (500 ng/mL) and epidermal growth factor (20 ng/mL). Trypsin ethylenediamine tetra acetic acid (EDTA) was used to passage the cells after every 2-3 days. 96-well flat-bottomed cell culture plates were used to seed the cells at a density of 10^4 cells mL^-1. The medium was aspirated from all the wells of culture plates after 24 h followed by the addition of synthesized compounds (in 200 μL medium to yield a final concentration of 0.1% (v/v) dimethyl sulfoxide) into individual wells of the plates. Four wells were designated to a single compound. The plates were allowed to incubate at 37°C for 96 h. Afterwards, the medium was aspirated and 3-[4,5-dimethylthiazol-2-yl]-2,5-diphenyltetrazolium bromide (MTT) (0.4 mg/mL) in medium was added to each well and subsequently incubated for 3 h. The medium was aspirated and 150 μL dimethyl sulfoxide (DMSO) was added to each well. The plates were vortexed followed by the measurement of absorbance at 540 nm on a microplate reader.
The test system of data set [2] is four cancer cell lines (A-549, MCF-7, Panc-1, HT-29). The data set can be described thus: Antiproliferative assay, mean over the four cancer cell lines (GI50). The class given is cell-based, human. Conditions: for IC50: Homo sapiens, mean IC50 of A-549, MCF-7, Panc-1, HT-29. The source says:
(§1) Table 1 presents the median inhibitory concentration (IC50) and GI50 (mean IC50) for the four cancer cell lines.
(§2) Refer to Appendix A for additional information.
All cell lines were obtained from ATCC (American Type Cell Culture). […]

Data set [3] relates to HT-29 (colon) cancer cell line. Briefly: Antiproliferative assay, HT-29. The class given is cell-based, human. Conditions: Homo sapiens, read-out: Antiproliferative activity IC50 ± SEM, HT-29. As to the method:
as §1, §2
(§3) To explore the antiproliferative potential of compounds propidium iodide fluorescence assay was performed using different cell lines such as Panc-1 (pancreas cancer cell line) [Panc-1-CTC (RRID:CVCL_VQ69)], MCF-7 (breast cancer cell line) [MCF-7 (RRID:CVCL_0031)], HT-29 (colon cancer cell line) [HT-29 (RRID:CVCL_0320)] and A-549 (epithelial cancer cell line)[A-549 (RRID:CVCL_0023)], respectively. All cell lines were obtained from ATCC (American Type Cell Culture).
(§4) To calculate the total nuclear DNA, a fluorescent dye (propidium iodide, PI) is used which can attach to the DNA, thus offering a quick and precise technique. PI cannot pass through the cell membrane and its signal intensity can be considered as directly proportional to quantity of cellular DNA. Cells whose cell membranes are damaged or have changed permeability are counted as dead ones. The assay was performed by seeding the cells of different cell lines at a density of 3000-7500 cells/well (in 200 μl medium) in culture plates followed by incubation for 24 h at 37 °C in humidified 5% CO2 /95% air atmospheric conditions. The medium was removed; the compounds were added to the plates at 10 μM concentrations (in 0.1% DMSO) in triplicates, followed by incubation for 48 h. DMSO (0.1%) was used as control. After incubation, medium was removed followed by the addition of PI (25 μl, 50 μg/mL in water/medium) to each well of the plates. At -80 °C, the plates were allowed to freeze for 24 h, followed by thawing at 25 °C. A fluorometer (Polar-Star BMG Tech) was used to record the readings at excitation and emission wavelengths of 530 and 620 nm for each well. The percentage cytotoxicity of compounds was calculated using the following formula: […]

The subject of data set [4] is Panc-1 (pancreatic) cancer cell line. The data set can be described thus: Antiproliferative assay, Panc-1. It is filed as cell-based, human. Conditions: Homo sapiens, PANC-1; read-out: Antiproliferative activity IC50 ± SEM, Panc-1. As to the method:
as §1, §2, §3, §4

The subject of data set [5] is MCF-7 (breast) cancer cell line. The data set can be described thus: Antiproliferative assay, MCF-7. It is filed as cell-based, human. Conditions: Homo sapiens, MCF7; read-out: Antiproliferative activity IC50 ± SEM, MCF-7. On the procedure: as §1, §2, §3, §4
Data set [6] deals with A-549 (lung) cancer cell line. The data set can be described thus: Antiproliferative assay, A-549. It is filed as cell-based, human. Conditions: Homo sapiens, A549; read-out: Antiproliferative activity IC50 ± SEM, A-549. On the procedure:
as §1, §2, §3, §4

Data set [7] concerns the target VEGFR-2 (Homo sapiens, UniProt P35968). The data set can be described thus: VEGFR-2 kinase inhibitory assay.
Experimental: Prepare all the solutions using autoclaved, deionized water and analytical grade reagents. Prepare and store all the reagents at room temperature (unless indicated otherwise). […] The assays used an ULight-labeled peptide substrate and a Europium-W1024-labeled antiphosphotyrosine antibody. The VEGFR-2 was purchased from Carna Biosciences, Inc. (New York, USA). The 384-well plates were obtained from PerkinElmer. […] Negative control: 2.5 μL/well 4×substrate/ATP mixture and 7.5 μL 1×kinase assay buffer in 384-well plate well. […] After incubation at room temperature and dark for 60 min, 5 μL 4×stop solution was added to corresponding wells to react for 5 min and then 5 μL 4×detection mix was added to the corresponding wells of a 384-well plate. The mixture was centrifugally mixed and stayed for 60 min at room temperature for color development. The plate was read using an Envision plate reader. The inhibition rate (%) = (positive well reading-compound well reading)/(positive well reading-negative well reading)×100. The corresponding IC50 values were calculated using GraphPad Prism 5.0.
Data set [8] concerns the target EGFR (Homo sapiens, UniProt P00533). The data set can be described thus: EGFR-TK inhibitory assay. The note with it: EGFR inhibition IC50 ± SEM.
Experimental: To record autophosphorylation level, EGFR kinase assay was carried out on the basis of DELFIA/Time-Resolved Fluorometry. […] Each compound (10 μL) was incubated with recombinant enzyme (10 μL, 5 ng for EGFR, 1:80 dilution in 100 mM HEPES) for 10 min at 25 °C, subsequent to the addition of 5X buffer (10 μL, containing 2 mM MnCl2, 100 μM Na3VO4, 20 mM HEPES and 1 mM DTT) and ATP-MgCl2 (20 μL, containing 0.1 mM ATP and 50 mM MgCl2) and incubation for 1h. The negative and positive controls were included in each plate by the incubation of enzyme either with or without ATP-MgCl2. The liquid was removed after incubation and the plates were washed thrice using a wash buffer. The Europium-tagged antiphosphotyrosine antibody (75 μL, 400 ng) was added to each well followed by incubation of 1h and then washing of the plates using buffer. […] The autophosphorylation percentage inhibition by compounds was calculated using the following equation:
The majority of signals detected by antiphosphotyrosine antibody were from EGFR because the enzyme preparation contained low impurities.

Values joined by “and” are separate entries in the source; they are usually repeats but may differ in a detail not shown here. Equal values may be shown once.

The record followed here is article PMC12897534, “Design, synthesis, and antiproliferative activity of new 5-ethylsulfonyl-indazole-3-carbohydrazides as dual EGFR/VEGFR-2 kinases inhibitors” (Journal of Enzyme Inhibition and Medicinal Chemistry, 2025).

EGFR, sequence (P00533 669-1210): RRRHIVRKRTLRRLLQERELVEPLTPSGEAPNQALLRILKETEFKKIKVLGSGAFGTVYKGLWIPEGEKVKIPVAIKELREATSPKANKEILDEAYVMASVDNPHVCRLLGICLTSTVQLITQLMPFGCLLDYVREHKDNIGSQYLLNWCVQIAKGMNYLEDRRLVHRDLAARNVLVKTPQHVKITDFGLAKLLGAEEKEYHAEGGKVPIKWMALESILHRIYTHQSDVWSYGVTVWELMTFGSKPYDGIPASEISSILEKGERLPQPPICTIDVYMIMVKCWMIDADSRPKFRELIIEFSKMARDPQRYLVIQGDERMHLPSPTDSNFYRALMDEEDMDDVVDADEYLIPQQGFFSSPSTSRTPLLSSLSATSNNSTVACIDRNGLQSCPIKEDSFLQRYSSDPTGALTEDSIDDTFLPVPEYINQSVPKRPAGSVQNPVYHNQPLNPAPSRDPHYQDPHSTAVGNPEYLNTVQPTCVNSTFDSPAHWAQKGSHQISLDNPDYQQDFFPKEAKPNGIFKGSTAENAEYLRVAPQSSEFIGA
VEGFR-2, sequence (P35968 20-1356): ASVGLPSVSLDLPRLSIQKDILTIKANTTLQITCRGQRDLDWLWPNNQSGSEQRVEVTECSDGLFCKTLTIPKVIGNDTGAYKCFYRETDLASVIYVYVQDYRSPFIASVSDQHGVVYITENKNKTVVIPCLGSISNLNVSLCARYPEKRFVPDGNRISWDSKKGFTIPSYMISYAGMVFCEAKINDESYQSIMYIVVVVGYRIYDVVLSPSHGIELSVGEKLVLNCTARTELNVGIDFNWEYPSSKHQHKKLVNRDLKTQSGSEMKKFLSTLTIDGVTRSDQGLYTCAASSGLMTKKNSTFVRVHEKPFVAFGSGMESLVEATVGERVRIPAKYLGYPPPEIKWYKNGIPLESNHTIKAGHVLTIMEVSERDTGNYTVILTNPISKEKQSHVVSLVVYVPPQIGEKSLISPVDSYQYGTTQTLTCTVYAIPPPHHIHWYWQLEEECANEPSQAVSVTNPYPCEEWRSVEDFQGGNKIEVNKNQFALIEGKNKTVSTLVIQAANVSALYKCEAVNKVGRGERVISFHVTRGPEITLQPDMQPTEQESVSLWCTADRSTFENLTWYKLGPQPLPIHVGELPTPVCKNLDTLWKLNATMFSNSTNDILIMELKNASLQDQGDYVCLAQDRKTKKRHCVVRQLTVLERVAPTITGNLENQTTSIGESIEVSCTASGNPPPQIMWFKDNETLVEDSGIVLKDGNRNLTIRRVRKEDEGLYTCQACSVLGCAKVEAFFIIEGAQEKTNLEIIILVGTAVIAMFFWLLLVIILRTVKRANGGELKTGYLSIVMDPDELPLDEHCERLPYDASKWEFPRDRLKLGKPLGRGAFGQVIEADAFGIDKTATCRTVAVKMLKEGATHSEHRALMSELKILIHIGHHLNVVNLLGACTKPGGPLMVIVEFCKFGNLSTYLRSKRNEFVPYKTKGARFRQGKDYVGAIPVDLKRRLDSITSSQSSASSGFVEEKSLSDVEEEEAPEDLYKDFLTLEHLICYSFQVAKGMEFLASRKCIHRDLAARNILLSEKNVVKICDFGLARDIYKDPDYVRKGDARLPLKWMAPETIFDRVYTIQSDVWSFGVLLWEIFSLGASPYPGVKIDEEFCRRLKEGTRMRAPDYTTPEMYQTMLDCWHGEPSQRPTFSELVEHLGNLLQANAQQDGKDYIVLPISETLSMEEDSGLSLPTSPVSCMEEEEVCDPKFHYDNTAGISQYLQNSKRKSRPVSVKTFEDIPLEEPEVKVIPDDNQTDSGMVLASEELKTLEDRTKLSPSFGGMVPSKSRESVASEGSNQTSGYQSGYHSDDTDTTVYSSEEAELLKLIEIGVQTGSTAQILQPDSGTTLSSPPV

By viability is commonly meant the share of living cells, or the viability signal relative to a control. The low end stands for more harm to the cells, the high end for less harm to the cells. By IC50 is commonly meant the concentration that inhibits the measured activity by half. `CCS(=O)(=O)c1ccc2[nH]nc(C(=O)N/N=C/c3ccc(C#N)cc3)c2c1` [Compound 7a, (E)-N′-(4-Cyanobenzylidene)-5-(ethylsulfonyl)-1H-indazole-3-carbohydrazide] returned a viability at 96 h, 50 µM in data set [1] of 94%. Moreover, the “Fold less potent than 7 g (GI50)” value in data set [2] (GI50 ratio to 7 g) was 2.1 fold. In data set [2] (GI50 ratio to 7i), the “Fold less potent than 7i (GI50)” value amounted to 2.4 fold. For the same molecule, the “Fold less potent than 7 l (GI50)” value in data set [2] (GI50 ratio to 7 l) is 1.9 fold. Further, the IC50 in data set [2] worked out at 78 nM; in data set [3], 78 ± 6 nM; in data set [4] it was 77 ± 6 nM; in data set [5], 79 ± 6 nM; in data set [6] it was 77 ± 6 nM.

As for `CCS(=O)(=O)c1ccc2[nH]nc(C(=O)N/N=C/c3cccnc3)c2c1` [Compound 7b, (E)-5-(ethylsulfonyl)-N′-(pyridin-3-ylmethylene)-1H-indazole-3-carbohydrazide], the viability at 96 h, 50 µM in data set [1] was determined as 92%. Further, the IC50 in data set [2] stood at 48 nM; in data set [3], 48 ± 3 nM; in data set [4], 48 ± 3 nM; in data set [5] it was 50 ± 4 nM; in data set [6] it was 47 ± 3 nM.

Turning to `CCS(=O)(=O)c1ccc2[nH]nc(C(=O)N/N=C/c3ccc4c(cnn4C)c3)c2c1` [Compound 7c, (E)-5-(ethylsulfonyl)-N′-((1-methyl-1H-indazol-5-yl)methylene)-1H-indazole-3-carbohydrazide], the viability at 96 h, 50 µM in data set [1] was found to be 91%. Further, the IC50 in data set [2] was determined as 58 nM; in data set [3], 58 ± 4 nM; in data set [4] it was 58 ± 4 nM; in data set [5], 59 ± 4 nM; in data set [6], 56 ± 4 nM.

As to `CCS(=O)(=O)c1ccc2[nH]nc(C(=O)N/N=C/c3ccc4ncccc4c3)c2c1` [Compound 7d, (E)-5-(ethylsulfonyl)-N′-(quinolin-6-ylmethylene)-1H-indazole-3-carbohydrazide], the viability at 96 h, 50 µM in data set [1] was 92%. Moreover, the IC50 in data set [2] came out at 54 nM; in data set [3], 54 ± 4 nM; in data set [4], 54 ± 4 nM; in data set [5] it was 55 ± 4 nM; in data set [6] it was 53 ± 4 nM.

With `CCS(=O)(=O)c1ccc2[nH]nc(C(=O)N/N=C/c3nccs3)c2c1` [Compound 7e, (E)-5-(ethylsulfonyl)-N′-(thiazol-2-ylmethylene)-1H-indazole-3-carbohydrazide], in data set [1], the viability at 96 h, 50 µM was determined as 94%. Besides, the “Fold less potent than 7j (GI50)” value in data set [2] (GI50 ratio to 7j) worked out at 2.3 fold. The IC50 in data set [2] amounted to 60 nM; in data set [3], 60 ± 5 nM; in data set [4], 60 ± 5 nM; in data set [5], 61 ± 5 nM; in data set [6], 58 ± 4 nM.

On to `CCS(=O)(=O)c1ccc2[nH]nc(C(=O)N/N=C/c3ccc4c(ccn4C)c3)c2c1` [Compound 7f, (E)-5-(ethylsulfonyl)-N′-((1-methyl-1H-indol-5-yl)methylene)-1H-indazole-3-carbohydrazide], for which, in data set [1], the viability at 96 h, 50 µM turned out to be 92%. Moreover, the IC50 came out at 73 nM in data set [2]; 72 ± 6 nM in data set [3]; 73 ± 6 nM in data set [4]; 75 ± 6 nM in data set [5]; 71 ± 6 nM in data set [6].

As for `CCS(=O)(=O)c1ccc2[nH]nc(C(=O)N/N=C/c3ccc(OC)c(O)c3)c2c1` [Compound 7g, (E)-5-(ethylsulfonyl)-N′-(3-hydroxy-4-methoxybenzylidene)-1H-indazole-3-carbohydrazide], the viability at 96 h, 50 µM in data set [1] is 91%. Also, the half-inhibitory concentration (IC50) in data set [2] is 36 nM; in data set [7], 39 ± 2 nM; in data set [3] it was 36 ± 2 nM; in data set [8], 81 nM and 83 nM; in data set [4], 36 ± 2 nM; in data set [5], 38 ± 2 nM. In data set [6], the IC50 was found to be 35 ± 2 nM.

`CCS(=O)(=O)c1ccc2[nH]nc(C(=O)N/N=C/c3cncnc3)c2c1` [Compound 7h, (E)-5-(ethylsulfonyl)-N′-(pyrimidin-5-ylmethylene)-1H-indazole-3-carbohydrazide] yielded a viability at 96 h, 50 µM in data set [1] of 93%. For the same molecule, the IC50 in data set [2] stood at 68 nM; in data set [3], 68 ± 5 nM; in data set [4], 68 ± 5 nM; in data set [5], 70 ± 6 nM; in data set [6] it was 67 ± 5 nM.

`CCS(=O)(=O)c1ccc2[nH]nc(C(=O)N/N=C/c3ccc(O)cc3)c2c1` [Compound 7i, (E)-5-(ethylsulfonyl)-N′-(4-hydroxybenzylidene)-1H-indazole-3-carbohydrazide]: the viability at 96 h, 50 µM in data set [1] stood at 92%. The IC50 was 32 nM in data set [2]; 36 ± 2 nM in data set [7]; 32 ± 2 nM in data set [3]; 83 nM and 81 nM in data set [8]; 32 ± 2 nM in data set [4]; 34 ± 2 nM in data set [5]. Further, the IC50 in data set [6] was 31 ± 2 nM.

The molecule `CCS(=O)(=O)c1ccc2[nH]nc(C(=O)N/N=C/C3CC3)c2c1` [Compound 7m, (E)-N′-(cyclopropylmethylene)-5-(ethylsulfonyl)-1H-indazole-3-carbohydrazide] came in with a viability at 96 h, 50 µM in data set [1] of 94%. Further, the IC50 in data set [2] was found to be 50 nM; in data set [3] it was 50 ± 4 nM; in data set [4] it was 50 ± 4 nM; in data set [5] it was 52 ± 4 nM; in data set [6], 49 ± 3 nM.

`CCS(=O)(=O)c1ccc2[nH]nc(C(=O)N/N=C/C3CCCC3)c2c1` [Compound 7n, (E)-N′-(cyclopentylmethylene)-5-(ethylsulfonyl)-1H-indazole-3-carbohydrazide] had a viability at 96 h, 50 µM in data set [1] of 90%. Further, the IC50 in data set [2] came to 64 nM; in data set [3], 64 ± 5 nM; in data set [4], 64 ± 5 nM; in data set [5], 66 ± 5 nM; in data set [6] it was 63 ± 5 nM.

With `C#Cc1cccc(Nc2ncnc3cc(OCCOC)c(OCCOC)cc23)c1` [Erlotinib, reference compound], the IC50 was 30 ± 3 nM in data set [3], 30 ± 3 nM in data set [4], 40 ± 3 nM in data set [5] and 30 ± 3 nM in data set [6].
